Experimental data: paper PMC10141607, “Powerful Avidity with a Limited Valency for Virus-Attachment Blockers on DC-SIGN: Combining Chelation and Statistical Rebinding with Structural Plasticity of the Receptor” (ACS Central Science, 2023)
Where “and” joins values, the source holds several entries; their conditions need not be identical. Equal entries are not always repeated.

T1: DC-SIGN ECD oriented surface (Homo sapiens, UniProt Q9NNX6)
T1 construct: made in house
T1 sequence (Q9NNX6 59-404 limits assumed): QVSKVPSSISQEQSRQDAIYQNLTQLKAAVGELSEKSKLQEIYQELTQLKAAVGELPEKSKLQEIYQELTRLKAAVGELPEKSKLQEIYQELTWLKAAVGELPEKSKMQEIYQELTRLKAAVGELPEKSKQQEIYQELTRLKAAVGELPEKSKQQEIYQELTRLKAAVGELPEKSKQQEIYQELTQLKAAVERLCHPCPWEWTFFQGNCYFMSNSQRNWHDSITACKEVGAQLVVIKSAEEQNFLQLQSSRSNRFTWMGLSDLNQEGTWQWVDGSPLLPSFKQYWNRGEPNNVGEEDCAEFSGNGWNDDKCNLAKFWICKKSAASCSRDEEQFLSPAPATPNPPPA

T2: DC-SIGN ECD tetramer (Homo sapiens, UniProt Q9NNX6)
T2 sequence (Q9NNX6 59-404 limits assumed): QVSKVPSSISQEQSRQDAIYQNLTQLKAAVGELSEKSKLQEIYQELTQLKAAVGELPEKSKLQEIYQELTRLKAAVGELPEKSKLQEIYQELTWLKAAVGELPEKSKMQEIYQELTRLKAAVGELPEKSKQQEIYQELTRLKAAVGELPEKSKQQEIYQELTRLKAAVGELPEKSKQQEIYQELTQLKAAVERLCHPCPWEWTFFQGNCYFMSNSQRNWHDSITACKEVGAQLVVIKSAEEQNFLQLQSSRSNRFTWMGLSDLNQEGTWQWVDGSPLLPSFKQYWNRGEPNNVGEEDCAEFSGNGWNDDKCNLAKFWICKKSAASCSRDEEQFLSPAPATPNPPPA

T3: DC-SIGN extracellular domain (human), Q9NNX6
T3 chain: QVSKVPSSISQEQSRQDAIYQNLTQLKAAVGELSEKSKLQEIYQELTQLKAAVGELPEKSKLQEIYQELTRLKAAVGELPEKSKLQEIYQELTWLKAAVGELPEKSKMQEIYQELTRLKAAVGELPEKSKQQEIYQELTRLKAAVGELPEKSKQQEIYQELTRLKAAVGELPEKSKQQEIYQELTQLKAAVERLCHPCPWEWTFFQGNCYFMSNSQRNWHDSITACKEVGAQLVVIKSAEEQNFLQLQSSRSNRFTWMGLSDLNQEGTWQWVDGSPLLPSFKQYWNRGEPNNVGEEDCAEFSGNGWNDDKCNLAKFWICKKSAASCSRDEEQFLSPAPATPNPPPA


What was measured:
[1] = target: T1, DC-SIGN ECD oriented surface; assay type: binding; conditions: for Kd: SPR direct interaction on DC-SIGN ECD oriented surface, 25 mM Tris pH 8, 150 mM NaCl, 4 mM CaCl2, 4% DMSO, read-out: KD app; for ß factor (valency-corrected enhancement factor): from SPR KDapp, compound 3.1 as monovalent reference
[2] = test system: DC-SIGN ECD; design: method as in PMID 25648900; conditions: SPR inhibition study (competition experiment); cited from earlier work
[3] = target: T2, DC-SIGN ECD tetramer; assay: Isothermal titration calorimetry (ITC); assay type: binding; conditions: 25°C
Protocol: Thermodynamic parameters of multivalent binding as measured by isothermal titration calorimetry (ITC) were analyzed for compounds 3.2 and 3.6. Usually, ITC should provide, among other parameters, a “real” KD value; however, here we prefer to refer to a KDapp. Indeed, in these ITC experiments, we are not evaluating an affinity (a 1:1 unitary interaction, defined by KD) but rather an avidity phenomenon resulting from cumulative unitary bonds (each of whose individual contributions to the overall avidity cannot be deconvoluted). In addition, this avidity results from several multivalent modalities, a population of binding modes. Thus, the use of KDapp, instead of KD, emphasizes that the values determined here are the result of a complex phenomenon. The ITC binding analysis (Figure 3 and Table 2) is fully in agreement with the other biophysical techniques (see Table 2 for SPR and Figure 2C for FP of 3.6) with KDapp values equal to 58 ± 1 nM and 1.1 ± 0.2 μM for compounds 3.6 and 3.2, respectively. […] Increasing the local concentration close to the site is a major source of avidity generation. The ΔH difference is offset by a more unfavorable entropy for 3.6, which probably originates from the loss of degrees of freedom of construct extremities, six versus two, upon binding. Hydrophobic effect may also contribute, since the hydrophobic rod is shielded better from the solvent by the six units of ligand 1 in 3.6([35]) and exposing the hydrophobic parts and ordering the solvent around them is entropically costly. Combining the enthalpy and entropy effects, the ΔG for the hexavalent ligand improves by 10 kJ/mol. It is interesting to note that a stoichiometry of 1 for the complex with 3.6 is observed, supporting again the chelation mode. On the contrary, a stoichiometry n = 1.5 is observed for 3.2, with a KDapp in the μM range, which is compatible with a mixed chelation and clustering binding mode. […]
This graph is supplementary evidence of the multivalent binding, here chelate binding mode for 3.2, that occur over a DC-SIGN oriented surface.
3. Isothermal titration calorimetric analysis
ITC experiments were performed at 25°C using TA Instrument Nano Isothermal Titration Calorimeter Low volume (Nano ITC LV). Compound 3.6, 3.2 and DC-SIGN ECD were prepared in 25 mM Tris pH 8; 150 mM NaCl, 4 mM CaCl2, 4 % DMSO. Compounds (30 µM of 3.6 or 375 µM of 3.2) were stepwise injected (1.03 µL) to 190 µL of DC-SIGN ECD tetramer (respectively, 30 µM or 48.75 µM) in the cell. The blank titrations (compounds to buffer) were done for subtraction of dilution heat from the integrated data. […]
The free energy changes (∆G) and entropy (∆S) were calculated using equation (2): […]

[4] = target: T3, DC-SIGN extracellular domain (human), …; assay: AUC; sedimentation velocity; DC-SIGN tetramer 4 uM alone (same peak with 5 nM to 500 nM compound 3.6); monomers to tetramer; conditions: remark: other sources report otherwise

Row | Molecule | Kd [1] | ß factor (valency-corrected enhancement factor) [1] | IC50 [2] [nM] | further results
1 | O=C(NCc1ccc(CO)cc1)C1CC(OCCn2cc(COCC(COCCOCCn3cc(-c4cc(OCCOCCO)c(-c5cn(CCOCCOCC(COCc6cn(CCOC7CC(C(=O)NCc8ccc(CO)cc8)C(C(=O)NCc8ccc(CO)cc8)CC7OC7OC(CO)C(O)C(O)C7O)nn6)(COCc6cn(CCOC7CC(C(=O)NCc8ccc(CO)cc8)C(C(=O)NCc8ccc(CO)cc8)CC7OC7OC(CO)C(O)C(O)C7O)nn6)COCc6cn(CCOC7CC(C(=O)NCc8ccc(CO)cc8)C(C(=O)NCc8ccc(CO)cc8)CC7OC7OC(CO)C(O)C(O)C7O)nn6)nn5)cc4OCCOCCO)nn3)(COCc3cn(CCOC4CC(C(=O)NCc5ccc(CO)cc5)C(C(=O)NCc5ccc(CO)cc5)CC4OC4OC(CO)C(O)C(O)C4O)nn3)COCc3cn(CCOC4CC(C(=O)NCc5ccc(CO)cc5)C(C(=O)NCc5ccc(CO)cc5)CC4OC4OC(CO)C(O)C(O)C4O)nn3)nn2)C(OC2OC(CO)C(O)C(O)C2O)CC1C(=O)NCc1ccc(CO)cc1 (stereo not shown) [Compound 1.6] | 170 nM and 172 nM | 38 | – | –
2 | [N-]=[N+]=NCCOC1CC(C(=O)NCc2ccc(CO)cc2)C(C(=O)NCc2ccc(CO)cc2)CC1OC1OC(CO)C(O)C(O)C1O (stereo not shown) [Compound 1] | – | – | 270000 | –
3 | O=C(NCc1ccc(CO)cc1)C1CC(OCCn2cc(COCC(COCCOCCn3cc(-c4cc(OCCOCCO)c(C#Cc5cc(OCCOCCO)c(-c6cn(CCOCCOCC(COCc7cn(CCOC8CC(C(=O)NCc9ccc(CO)cc9)C(C(=O)NCc9ccc(CO)cc9)CC8OC8OC(CO)C(O)C(O)C8O)nn7)(COCc7cn(CCOC8CC(C(=O)NCc9ccc(CO)cc9)C(C(=O)NCc9ccc(CO)cc9)CC8OC8OC(CO)C(O)C(O)C8O)nn7)COCc7cn(CCOC8CC(C(=O)NCc9ccc(CO)cc9)C(C(=O)NCc9ccc(CO)cc9)CC8OC8OC(CO)C(O)C(O)C8O)nn7)nn6)cc5OCCOCCO)cc4OCCOCCO)nn3)(COCc3cn(CCOC4CC(C(=O)NCc5ccc(CO)cc5)C(C(=O)NCc5ccc(CO)cc5)CC4OC4OC(CO)C(O)C(O)C4O)nn3)COCc3cn(CCOC4CC(C(=O)NCc5ccc(CO)cc5)C(C(=O)NCc5ccc(CO)cc5)CC4OC4OC(CO)C(O)C(O)C4O)nn3)nn2)C(OC2OC(CO)C(O)C(O)C2O)CC1C(=O)NCc1ccc(CO)cc1 (stereo not shown) [Compound 2.6] | 140 ± 8 nM | 47 | – | –
4 | O=C(NCc1ccc(CO)cc1)C1CC(OCCn2cc(-c3cc(OCCOCCO)c(C#Cc4cc(OCCOCCO)c(C#Cc5cc(OCCOCCO)c(-c6cn(CCOC7CC(C(=O)NCc8ccc(CO)cc8)C(C(=O)NCc8ccc(CO)cc8)CC7OC7OC(CO)C(O)C(O)C7O)nn6)cc5OCCOCCO)cc4OCCOCCO)cc3OCCOCCO)nn2)C(OC2OC(CO)C(O)C(O)C2O)CC1C(=O)NCc1ccc(CO)cc1 (stereo not shown) [Compound 3.2] | 2400 nM and 2440 nM | 8 | 8000 | n (stoichiometry) [3]: 1.5 and 1.56 ± 0.04; ΔH [3]: –85.27 ± 4.48 kJ/mol; TΔS ([3]; calculated): –54.4 kJ/mol; Kd ([3]; one-site binding model, read-out: KDapp): 1100 ± 200 nM
5 | DC-SIGN extracellular domain, Q9NNX6 59-404 (domain or fragment) QVSKVPSSISQEQSRQDAIYQNLTQLKAAVGELSEKSKLQEIYQELTQLKAAVGELPEKSKLQEIYQELTRLKAAVGELPEKSKLQEIYQELTWLKAAVGELPEKSKMQEIYQELTRLKAAVGELPEKSKQQEIYQELTRLKAAVGELPEKSKQQEIYQELTRLKAAVGELPEKSKQQEIYQELTQLKAAVERLCHPCPWEWTFFQGNCYFMSNSQRNWHDSITACKEVGAQLVVIKSAEEQNFLQLQSSRSNRFTWMGLSDLNQEGTWQWVDGSPLLPSFKQYWNRGEPNNVGEEDCAEFSGNGWNDDKCNLAKFWICKKSAASCSRDEEQFLSPAPATPNPPPA | – | – | – | stoichiometry N [4]: 4
